Values after ≈ are worked out from the molar mass of the structure shown. Numbered stars: 1 amine (or outer) side, 2 acyl side, 3 side chain; on linkers, the order of the positions; unused ones are H or OH. Bridge positions count the residues as written; N and C are the ends. Square brackets hold non-standard residues; d marks the D form. Peptide text beside a SMILES is read from it. * marks the point of attachment. ξ: configuration not given here. X11 = O=C([C@@H](Cc1ccc(-c2ccncc2)cc1)N[*:1])[*:2]; dBip = N[C@H](Cc1ccc(-c2ccccc2)cc1)C(=O)O; Octanoyl(6-Me) = CCC(C)CCCCC(=O)*; X3 = CCCCCCCCN1CCNC[C@H]1C(=O)*; dCha = N[C@H](CC1CCCCC1)C(=O)O; Thr(3ξ) = CC(O)[C@H](N)C(=O)O; Dab = NCC[C@H](N)C(=O)O; Dap = NC[C@H](N)C(=O)O
Legend:
Format in all cases: cell-based
[1] = tested on: HK-2 cells
From the text: Values are reported relative to Polymyxin B.

[2] = tested on: Acinetobacter baumannii
Method in brief: (§1)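 Each compound was tested against a panel of up to nine strains per Gram-negative species. The panel included strains that show elevated MICs to Polymyxin. Activity was recorded as MIC in μg/mL.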

[3] = tested on: Klebsiella pneumoniae
Method in brief: as §1

[4] = tested on: Escherichia coli
Method in brief: as §1

[5] = tested on: Pseudomonas aeruginosa
Method in brief: as §1

Structure (SMILES)	HK-2 IC50 [1]	MIC A. baumanii 053 [2]	MIC A. baumanii 056 [2]	MIC A. baumanii ATCC BAA-747 [2]	MIC K. pneumoniae 062 [3]	MIC K. pneumoniae 063 [3]	MIC K. pneumoniae 064 [3]	MIC K. pneumoniae 065 [3]	MIC K. pneumoniae 066 [3]	MIC K. pneumoniae 067 [3]	MIC K. pneumoniae ATCC 4352 [3]	MIC E. coli 058 [4]	MIC E. coli 059 [4]	MIC E. coli 060 [4]	MIC E. coli 061 [4]	MIC E. coli ATCC 25922 [4]	MIC P. aeruginosa 068 [5]	MIC P. aeruginosa 070 [5]	MIC P. aeruginosa ATCC 27853 [5]	other results
CCC(C)CCCCC(=O)N[C@@H](CCN)C(=O)N[C@H](C(=O)N[C@@H](CCN)C(=O)N[C@H]1CCNC(=O)[C@H](C(C)O)NC(=O)[C@H](CCN)NC(=O)[C@H](CCN)NC(=O)[C@H](CC(C)C)NC(=O)[C@@H](CC2CCCCC2)NC(=O)[C@H](CCN)NC1=O)C(C)O (stereo partly shown) [Example 22] ({Octanoyl(6-Me)}-[Dab][Thr(3ξ)][Dab][Dab][Dab][dCha]L[Dab][Dab][Thr(3ξ)]; lactam 4-C)	17 µg/mL	64 µg/mL (≈ 52.9 µM)	32 µg/mL (≈ 26.5 µM)	0.5 µg/mL (≈ 0.413 µM)	16 µg/mL (≈ 13.2 µM)	32 µg/mL (≈ 26.5 µM)	4 µg/mL (≈ 3.31 µM)	1 µg/mL (≈ 0.827 µM)	4 µg/mL (≈ 3.31 µM)	64 µg/mL (≈ 52.9 µM)	0.5 µg/mL (≈ 0.413 µM)	2 µg/mL (≈ 1.65 µM)	2 µg/mL (≈ 1.65 µM)	4 µg/mL (≈ 3.31 µM)	8 µg/mL (≈ 6.61 µM)	0.5 µg/mL (≈ 0.413 µM)	4 µg/mL (≈ 3.31 µM)	4 µg/mL (≈ 3.31 µM)	1 µg/mL (≈ 0.827 µM)	
CC(C)CC(CN)C(=O)N[C@H](C(=O)N[C@@H](CN)C(=O)N[C@H]1CCNC(=O)[C@H]([C@@H](C)O)NC(=O)[C@H](CCN)NC(=O)[C@H](CCN)NC(=O)[C@H](CC(C)C)NC(=O)[C@@H](Cc2ccc(-c3ccc(C(F)(F)F)cc3)cc2)NC(=O)[C@H](CCN)NC1=O)C(C)O (single isomer, unassigned; isomer 1) [Example 20, 2-Aminomethyl-4-methyl pentanoyl polymyxin L-Thr-L-Dap-polymyxin [D-{4-(4-trifluoromethyl)phenyl} Phe]-6]heptapeptide. Isomer 1]	10 µg/mL			0.5 µg/mL (≈ 0.41 µM)				1 µg/mL (≈ 0.819 µM)			0.5 µg/mL (≈ 0.41 µM)	4 µg/mL (≈ 3.28 µM)				1 µg/mL (≈ 0.819 µM)			1 µg/mL (≈ 0.819 µM)	
CCC(C)CCCCC(=O)N[C@@H](CCN)C(=O)N[C@H](C(=O)N[C@@H](CCN)C(=O)N[C@H]1CCNC(=O)[C@H]([C@@H](C)O)NC(=O)[C@H](CCN)NC(=O)[C@H](CCN)NC(=O)[C@H](CC(C)C)NC(=O)[C@@H](Cc2ccc(-c3ccncc3)cc2)NC(=O)[C@H](CCN)NC1=O)C(C)O (stereo partly shown) [Example 1] ({Octanoyl(6-Me)}-[Dab][Thr(3ξ)][Dab][Dab][Dab][X11]L[Dab][Dab]T; lactam 4-C)	7 µg/mL	>32 µg/mL	>32 µg/mL	1 µg/mL (≈ 0.781 µM)	>64 µg/mL	>64 µg/mL	32 µg/mL (≈ 25 µM)		32 µg/mL (≈ 25 µM)	>32 µg/mL	1 µg/mL (≈ 0.781 µM)			8 µg/mL (≈ 6.25 µM)	32 µg/mL (≈ 25 µM)	1 µg/mL (≈ 0.781 µM)	32 µg/mL (≈ 25 µM)	>32 µg/mL	1 µg/mL (≈ 0.781 µM)	
CCCCCCCCC1CNCC1C(=O)N[C@H](C(=O)N[C@@H](CCN)C(=O)N[C@H]1CCNC(=O)[C@H]([C@@H](C)O)NC(=O)[C@H](CCN)NC(=O)[C@H](CCN)NC(=O)[C@H](CC(C)C)NC(=O)[C@@H](Cc2ccc(-c3ccccc3)cc2)NC(=O)[C@H](CCN)NC1=O)C(C)O (single isomer, unassigned; isomer 2) [Example 8, trans-4-octylpyrrolidine-3-carbonyl polymyxin [D-(4-phenyl)Phe]-6] nonapeptide. Isomer 2]	3 µg/mL	4 µg/mL (≈ 3.2 µM)	2 µg/mL (≈ 1.6 µM)	1 µg/mL (≈ 0.801 µM)	4 µg/mL (≈ 3.2 µM)		1 µg/mL (≈ 0.801 µM)	1 µg/mL (≈ 0.801 µM)	0.5 µg/mL (≈ 0.4 µM)	8 µg/mL (≈ 6.41 µM)	1 µg/mL (≈ 0.801 µM)	2 µg/mL (≈ 1.6 µM)	1 µg/mL (≈ 0.801 µM)	2 µg/mL (≈ 1.6 µM)	4 µg/mL (≈ 3.2 µM)	1 µg/mL (≈ 0.801 µM)	2 µg/mL (≈ 1.6 µM)	2 µg/mL (≈ 1.6 µM)	1 µg/mL (≈ 0.801 µM)	
CCCCCCCCN1CCNC[C@H]1C(=O)N[C@H](C(=O)N[C@@H](CN)C(=O)N[C@H]1CCNC(=O)[C@H]([C@@H](C)O)NC(=O)[C@H](CCN)NC(=O)[C@H](CCN)NC(=O)[C@H](CC(C)C)NC(=O)[C@@H](Cc2ccc(-c3ccccc3)cc2)NC(=O)[C@H](CCN)NC1=O)C(C)O (stereo partly drawn) [Example 30, (S)-1-Octylpiperazine-2-carbonyl L-Thr-L-Dap-polymyxin [D-(4-phenyl Phe)]-6 heptapeptide.] (X3-[Thr(3ξ)][Dap][Dab][Dab][dBip]L[Dab][Dab]T; lactam 3-C)	4 µg/mL	4 µg/mL (≈ 3.2 µM)	2 µg/mL (≈ 1.6 µM)	1 µg/mL (≈ 0.8 µM)		4 µg/mL (≈ 3.2 µM)		1 µg/mL (≈ 0.8 µM)			1 µg/mL (≈ 0.8 µM)	1 µg/mL (≈ 0.8 µM)			2 µg/mL (≈ 1.6 µM)	1 µg/mL (≈ 0.8 µM)	2 µg/mL (≈ 1.6 µM)	2 µg/mL (≈ 1.6 µM)	1 µg/mL (≈ 0.8 µM)	MIC A. baumanii NCTC 13424 [2]: 2 µg/mL (≈ 1.6 µM); MIC K. pneumoniae ATCC 13882 [3]: 1 µg/mL (≈ 0.8 µM); MIC P. aeruginosa CCUG 59347 [5]: 2 µg/mL (≈ 1.6 µM)

Reference: US12146004B2, “Polymyxin compounds and uses thereof” (priority 2014, dated 2024)
